# Literature values in patent publication US20250333423A1, “SMALL MOLECULE MODULATORS OF GP130 SIGNALING PATHWAYS” (CarthroniX, Inc., priority 2022, published 2025).
# Key:
# gp130 = biological target: T1, gp130 (Homo sapiens, UniProt P40189)
# T1 sequence (P40189 23-918): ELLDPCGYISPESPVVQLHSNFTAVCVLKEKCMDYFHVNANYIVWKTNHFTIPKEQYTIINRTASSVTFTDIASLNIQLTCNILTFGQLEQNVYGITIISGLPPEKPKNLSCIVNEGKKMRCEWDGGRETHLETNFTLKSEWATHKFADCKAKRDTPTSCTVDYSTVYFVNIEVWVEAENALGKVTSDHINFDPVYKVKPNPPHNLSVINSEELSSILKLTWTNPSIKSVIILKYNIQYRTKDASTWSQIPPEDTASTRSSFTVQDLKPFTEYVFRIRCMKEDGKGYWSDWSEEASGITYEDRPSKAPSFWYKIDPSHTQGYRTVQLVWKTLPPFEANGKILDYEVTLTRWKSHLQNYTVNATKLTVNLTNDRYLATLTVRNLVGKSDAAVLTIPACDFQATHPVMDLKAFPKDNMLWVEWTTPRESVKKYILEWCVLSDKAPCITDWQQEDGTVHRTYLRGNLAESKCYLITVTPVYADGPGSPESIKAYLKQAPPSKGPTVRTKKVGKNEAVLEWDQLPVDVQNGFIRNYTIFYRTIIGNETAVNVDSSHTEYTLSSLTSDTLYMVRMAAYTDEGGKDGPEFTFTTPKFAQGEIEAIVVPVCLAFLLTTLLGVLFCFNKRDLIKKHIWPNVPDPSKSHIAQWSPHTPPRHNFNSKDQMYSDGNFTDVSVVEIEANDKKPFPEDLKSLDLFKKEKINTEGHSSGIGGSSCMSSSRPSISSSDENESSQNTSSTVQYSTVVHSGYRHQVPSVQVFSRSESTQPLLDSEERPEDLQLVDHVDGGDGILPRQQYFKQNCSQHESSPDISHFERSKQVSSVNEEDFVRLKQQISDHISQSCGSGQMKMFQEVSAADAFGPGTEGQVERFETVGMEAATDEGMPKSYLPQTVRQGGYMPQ
structure (smiles),measurement,setting,value
Brc1ccc(Nc2nc(-c3ccccc3)cs2)cc1 [RCGD 423],interaction with gp130,gp130; in vitro,interacts with the extracellular region of gp130
same,formation of gp130 homodimers,gp130; ligand-independent,"promotes the formation of active, ligand-independent gp130 homodimers"
same,prevention of cartilage degeneration,rat model of OA,remarkable ability to prevent cartilage degeneration
